According to US20250257086A1, “EGFR DEGRADATION AGENT” (Beijing Tide Pharmaceutical Co., Ltd., priority 2022, published 2025):
Like-named read-outs stand apart in the source and are kept apart here.

Columns and labels:
Assay type in all cases: cell-based
[1] = molecular target: Ba/F3 (EGFR^L858R/T790M/C797S) cells (Homo sapiens, UniProt P00533, T790M/C797S/L858R, cells depend on it); test: Antiproliferative activity on Ba/F3 (EGFR L858R/T790M/C797S) cells (CTG)
Summary of the method: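 Luminescent CellTiter-Glo read-out on Ba/F3 cells carrying EGFR L858R/T790M/C797S. Inhibition normalised between untreated vehicle and a 10 μM positive drug. IC50 taken from a variable-slope four-parameter fit of inhibition against log compound concentration.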

[2] = system: H1975 (EGFR^L858R/T790M) cells; test: Antiproliferative activity on H1975 (EGFR L858R/T790M) cells (CTG); conditions: Homo sapiens, read-out: IC50 (nM), antiproliferative activity
Protocol: 30 nL of the compound dilution was added to a 384-well plate by Echo (Labcyte, Echo550).
The percent inhibition rate (% inhibition) was calculated by the following formula
[formula] • LUMcmpd: Luminescence value of assay compound. • LUMpositive: Average LUM value of positive drug with a concentration of 10 μM. • LUMvehicle: Average LUM value of negative control group without drug treatment.
The nonlinear regression curve (dose response-variable slope) between the value of inhibition rate (%) and the logarithm of compound concentration was fitted with graphpad prism 8.0, the effect dose curve of compound was drawn, and the IC50 value was calculated.
Y=Bottom+(Top−Bottom)/(1+10^((Log IC50−X)*HillSlope)) • X-axis: logarithm of compound concentration; Y axis: inhibition rate (inhibition).

[3] = molecular target: T1, EGFR^L858R/T790M/C797S protein (Homo sapiens, UniProt P00533, C797S/L858R/T790M); test: Induction of EGFR L858R/T790M/C797S protein degradation in Ba/F3 cells (Alpha counts); conditions: 24h treatment; for degradation effect on EGFR^L858R/T790M/C797S protein (in words): FIG. 1 and 2; for DC50: range 1 nM to 1000 nM, FIG. 1 and 2, read-out: DC50, reduction of EGFR^L858R/T790M/C797S protein level
T1 construct: expressed in transfected cells; host or cells: Ba/F3 (EGFR^L858R/T790M/C797S) cells
Protocol: (§1) Ba/F3 (EGFR^L858R/T790M/C797S) and Ba/F3 (EGFR^Del19/T790M/C797S) cells were cultured according to the culture conditions recommended by ATCC, and analyzed by index.
(§2) Culture conditions: incubated at 37° C., 95% air, 5% CO2 incubator.
(§3) (2) Compound Stock Solution: 10 mM Stock Solution in DMSO, Stored at −20° C.
(§4) The cells in the cell culture bottle were collected, and the cells with viability of >90% can be used in the assay. Cells were seeded in a 96-well plate with 40 μL cells, 1*10^5 cells/well.
(§5) The compounds were serially diluted 3× with DMSO, with the starting concentrations of the compounds being 1.0 mM (EGFR^L858R/T790M/C797S assay) and 10 mM (EGFR^Del19/T790M/C797S assay), respectively, into 10 concentrations to prepare working solutions.
(§6) (5) Compound was Pipetted into the 96-Well Plate to Treat Cells in a 37° C., 95% Air, 5% CO2 Incubator for 24h.
(§7) • 1) 1 μg/mL EGF stimulated cells for 10 min; • 2) After the compound treatment was completed, lysis buffer was added to lyse cells; 10 μL of cell lysate was transferred to the 384-well plate; in addition, control lysate, negative control and 5 μL of acceptor mix were added to the 384-well plate; The plate was shaken on a shaker for 1-2 min; • 3) 5 μL of donor mix was added to each well; the 384-well plate was sealed, shaken on a shaker for 1-2 min, and left in the dark at room temperature overnight; then the plate was read with ELISA reader.
(§8) Alpha counts were fitted by logarithmic treatment of compound concentration with Graphpad Prism 8.0.
(§9) [formula] • X: logarithm of compound concentration; Y: Alpha Counts.

[4] = molecular target: T2, EGFR^Del19/T790M/C797S protein (Homo sapiens, UniProt P00533, C797S/DEL746-750/T790M); test: Induction of EGFR Del19/T790M/C797S protein degradation in Ba/F3 cells (Alpha counts); conditions: 24h treatment; for degradation effect on EGFR^Del19/T790M/C797S protein (in words): FIG. 3; for DC50: range 1 nM to 10000 nM, FIG. 3, read-out: DC50, reduction of EGFR^Del19/T790M/C797S protein level
T2 construct: expressed in transfected cells; host or cells: Ba/F3 (EGFR^Del19/T790M/C797S) cells
Protocol: as §1, §2, §3, §4, §5, §6, §7, §8, §9

[5] = NCI-H1975, H1975 (EGFR^L858R/T790M) cells, 72h incubation, CTG luminescence
[6] = 72h incubation, CTG luminescence, read-out: IC50 (nM), antiproliferative activity

T2 sequence (P00533 with tags, fused parts or gaps DEL746-750/T790M/C797S): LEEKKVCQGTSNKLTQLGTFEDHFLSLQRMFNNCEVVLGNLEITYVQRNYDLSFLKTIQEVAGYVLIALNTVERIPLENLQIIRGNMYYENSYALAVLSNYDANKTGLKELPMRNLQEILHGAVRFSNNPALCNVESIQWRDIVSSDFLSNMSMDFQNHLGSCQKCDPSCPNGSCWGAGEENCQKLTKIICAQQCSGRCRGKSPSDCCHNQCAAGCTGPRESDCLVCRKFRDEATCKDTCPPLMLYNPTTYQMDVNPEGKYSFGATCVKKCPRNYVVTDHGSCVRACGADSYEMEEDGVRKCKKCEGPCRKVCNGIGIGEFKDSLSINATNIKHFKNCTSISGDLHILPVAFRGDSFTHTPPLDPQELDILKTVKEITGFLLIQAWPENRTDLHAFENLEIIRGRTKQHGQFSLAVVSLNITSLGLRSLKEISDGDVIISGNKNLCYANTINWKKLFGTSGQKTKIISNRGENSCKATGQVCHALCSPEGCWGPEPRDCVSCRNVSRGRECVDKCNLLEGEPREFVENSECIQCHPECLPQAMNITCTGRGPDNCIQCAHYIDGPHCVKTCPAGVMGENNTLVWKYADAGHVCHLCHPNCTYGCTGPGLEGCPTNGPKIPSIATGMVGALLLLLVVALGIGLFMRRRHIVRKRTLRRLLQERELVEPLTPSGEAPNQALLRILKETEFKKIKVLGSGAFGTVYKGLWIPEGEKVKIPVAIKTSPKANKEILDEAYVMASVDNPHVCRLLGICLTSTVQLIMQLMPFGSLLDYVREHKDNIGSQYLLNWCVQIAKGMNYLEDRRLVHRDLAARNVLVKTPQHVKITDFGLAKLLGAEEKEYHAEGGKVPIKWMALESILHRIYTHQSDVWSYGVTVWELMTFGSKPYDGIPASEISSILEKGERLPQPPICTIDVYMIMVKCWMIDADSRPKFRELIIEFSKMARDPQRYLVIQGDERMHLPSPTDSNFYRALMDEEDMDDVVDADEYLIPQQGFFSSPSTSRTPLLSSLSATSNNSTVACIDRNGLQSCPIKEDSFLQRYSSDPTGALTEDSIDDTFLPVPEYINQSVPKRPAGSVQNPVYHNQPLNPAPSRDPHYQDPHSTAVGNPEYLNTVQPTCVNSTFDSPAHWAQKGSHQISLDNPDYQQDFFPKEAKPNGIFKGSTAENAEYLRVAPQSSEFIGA
Chain of Ba/F3 (EGFR^L858R/T790M/C797S) cells (P00533 whole entry T790M/C797S/L858R): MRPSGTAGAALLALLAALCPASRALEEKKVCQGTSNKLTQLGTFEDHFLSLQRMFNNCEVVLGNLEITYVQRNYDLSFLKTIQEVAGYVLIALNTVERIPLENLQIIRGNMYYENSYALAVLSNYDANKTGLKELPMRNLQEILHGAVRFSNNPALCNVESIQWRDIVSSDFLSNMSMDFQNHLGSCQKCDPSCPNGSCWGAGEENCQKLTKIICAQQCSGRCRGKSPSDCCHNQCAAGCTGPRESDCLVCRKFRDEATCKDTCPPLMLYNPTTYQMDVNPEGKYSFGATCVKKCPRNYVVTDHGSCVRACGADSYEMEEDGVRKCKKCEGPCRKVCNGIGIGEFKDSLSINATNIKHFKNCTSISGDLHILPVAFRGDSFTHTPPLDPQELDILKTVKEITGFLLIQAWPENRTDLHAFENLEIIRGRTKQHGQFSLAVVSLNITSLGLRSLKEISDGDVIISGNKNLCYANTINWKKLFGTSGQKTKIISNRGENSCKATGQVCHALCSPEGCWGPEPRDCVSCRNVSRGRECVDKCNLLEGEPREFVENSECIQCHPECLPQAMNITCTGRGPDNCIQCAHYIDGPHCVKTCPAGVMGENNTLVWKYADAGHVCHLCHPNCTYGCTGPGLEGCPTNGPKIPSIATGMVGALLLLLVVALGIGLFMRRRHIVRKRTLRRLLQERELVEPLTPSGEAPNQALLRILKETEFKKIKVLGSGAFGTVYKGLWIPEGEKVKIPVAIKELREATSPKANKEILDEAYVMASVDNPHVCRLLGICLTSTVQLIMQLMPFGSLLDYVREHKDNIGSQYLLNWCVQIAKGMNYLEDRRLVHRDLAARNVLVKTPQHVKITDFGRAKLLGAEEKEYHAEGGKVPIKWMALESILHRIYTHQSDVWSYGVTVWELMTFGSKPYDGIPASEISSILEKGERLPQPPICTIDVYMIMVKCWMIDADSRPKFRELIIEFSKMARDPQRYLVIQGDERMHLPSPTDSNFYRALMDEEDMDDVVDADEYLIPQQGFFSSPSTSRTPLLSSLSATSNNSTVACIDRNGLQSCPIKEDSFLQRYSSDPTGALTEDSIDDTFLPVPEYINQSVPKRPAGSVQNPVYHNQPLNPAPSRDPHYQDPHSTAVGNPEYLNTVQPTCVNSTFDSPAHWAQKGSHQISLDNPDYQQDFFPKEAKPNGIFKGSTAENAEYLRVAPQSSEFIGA
T1 sequence (P00533 25-1210 T790M/C797S/L858R): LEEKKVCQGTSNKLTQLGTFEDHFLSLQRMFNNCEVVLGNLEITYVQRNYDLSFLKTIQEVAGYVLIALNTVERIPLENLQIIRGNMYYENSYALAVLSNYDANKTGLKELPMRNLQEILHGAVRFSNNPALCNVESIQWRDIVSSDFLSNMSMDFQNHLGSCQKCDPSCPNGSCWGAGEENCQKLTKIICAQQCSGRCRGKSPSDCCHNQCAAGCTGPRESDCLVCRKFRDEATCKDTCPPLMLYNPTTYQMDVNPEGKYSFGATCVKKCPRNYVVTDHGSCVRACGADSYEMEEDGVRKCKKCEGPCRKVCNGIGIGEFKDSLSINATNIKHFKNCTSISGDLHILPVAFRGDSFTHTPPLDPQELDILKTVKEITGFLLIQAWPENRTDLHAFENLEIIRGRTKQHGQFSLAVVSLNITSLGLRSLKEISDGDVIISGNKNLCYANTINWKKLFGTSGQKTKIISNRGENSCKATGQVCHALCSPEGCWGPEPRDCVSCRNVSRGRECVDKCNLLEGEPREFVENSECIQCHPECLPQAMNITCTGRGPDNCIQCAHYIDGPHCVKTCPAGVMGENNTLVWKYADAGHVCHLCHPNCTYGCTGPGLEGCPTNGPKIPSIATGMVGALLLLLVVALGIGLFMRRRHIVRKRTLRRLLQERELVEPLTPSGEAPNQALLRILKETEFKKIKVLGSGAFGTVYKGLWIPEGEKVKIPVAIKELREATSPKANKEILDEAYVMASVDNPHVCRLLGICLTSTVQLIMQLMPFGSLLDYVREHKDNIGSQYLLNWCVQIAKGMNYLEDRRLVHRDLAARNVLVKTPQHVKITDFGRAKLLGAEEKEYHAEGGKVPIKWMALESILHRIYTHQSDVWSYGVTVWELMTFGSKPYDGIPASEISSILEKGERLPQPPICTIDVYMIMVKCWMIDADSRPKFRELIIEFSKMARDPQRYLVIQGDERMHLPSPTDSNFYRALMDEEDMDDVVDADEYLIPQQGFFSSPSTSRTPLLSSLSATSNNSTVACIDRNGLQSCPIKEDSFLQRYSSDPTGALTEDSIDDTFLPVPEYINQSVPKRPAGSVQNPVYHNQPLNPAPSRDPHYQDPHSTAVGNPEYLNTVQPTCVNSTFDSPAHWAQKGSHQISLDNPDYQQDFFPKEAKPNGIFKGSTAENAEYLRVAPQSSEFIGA

IC50 [2, 5] | degradation effect on EGFR^L858R/T790M/C797S protein (in words) [3] | GI50 [1, 6] | Compound | further results
14.6 nM |  | 35.6 nM | CC#CC(=O)Nc1cc(Nc2ncc(Cl)c(Nc3ccccc3P(C)(C)=O)n2)c(OC)cc1N1CCC(N2CCN(CCCC#Cc3cccc4c3CN(C3CCC(=O)NC3=O)C4=O)CC2)CC1 (stereo not drawn) [Compound D058, N-(5-((5-chloro-4-((2-(dimethylphosphoryl)phenyl)amino)pyrimidin-2-yl)amino)-2-(4-(4-(5-(2-(2,6-dioxopiperidin-3-yl)-1-oxoisoindolin-4-yl)pent-4-yn-1-yl)piperazin-1-yl)piperidin-1-yl)-4-methoxyphenyl)but-2-ynamide] | degradation effect on EGFR^Del19/T790M/C797S protein (in words) [4]: significant degradation effects; DC50 [4]: 25.1 nM
 | significant degradation effect | 19.2 nM | C=C(F)C(=O)Nc1cc(Nc2ncc(Br)c(Nc3ccccc3P(C)(C)=O)n2)c(OC)cc1N1CCC(N2CCN(CCCC#Cc3cccc4c3CN(C3CCC(=O)NC3=O)C4=O)CC2)CC1 (stereo not drawn) [Compound D078, N-(5-((5-bromo-4-((2-(dimethylphosphoryl)phenyl)amino)pyrimidin-2-yl)amino)-2-(4-(4-(5-(2-(2,6-dioxopiperidin-3-yl)-1-oxoisoindolin-4-yl)pent-4-yn-1-yl)piperazin-1-yl)piperidin-1-yl)-4-methoxyphenyl)-2-fluoroacrylamide] | DC50 [3]: 84.7 nM
17.6 nM |  | 30.3 nM | C=CC(=O)Nc1cc(Nc2ncc(Br)c(Nc3ccccc3P(C)(C)=O)n2)c(OC)cc1N1CCC(N2CCN(CCCC#Cc3cccc4c3CN(C3CCC(=O)NC3=O)C4=O)CC2)CC1 (stereo not drawn) [Compound D478, N-(5-((5-bromo-4-((2-(dimethylphosphoryl)phenyl)amino)pyrimidin-2-yl)amino)-2-(4-(4-(5-(2-(2,6-dioxopiperidin-3-yl)-1-oxoisoindolin-4-yl)pent-4-yn-1-yl)piperazin-1-yl)piperidin-1-yl)-4-methoxyphenyl)acrylamide] | 
 | significant degradation effect | 37.3 nM | C=C(F)C(=O)Nc1cc(Nc2ncc(Cl)c(Nc3ccccc3P(C)(C)=O)n2)c(OC)cc1N1CCC(N2CCN(CCCC#Cc3cccc4c3CN(C3CCC(=O)NC3=O)C4=O)CC2)CC1 (stereo not drawn) [Compound D552, N-(5-((5-chloro-4-((2-(dimethylphosphoryl)phenyl)amino)pyrimidin-2-yl)amino)-2-(4-(4-(5-(2-(2,6-dioxopiperidin-3-yl)-1-oxoisoindolin-4-yl)pent-4-yn-1-yl)piperazin-1-yl)piperidin-1-yl)-4-methoxyphenyl)-2-fluoroacrylamide] | degradation effect on EGFR^Del19/T790M/C797S protein (in words) [4]: significant degradation effects; DC50 [4]: 29.7 nM; DC50 [3]: 117 nM

More lines, now with the values behind:

Compound | IC50 [2, 5] | degradation effect on EGFR^L858R/T790M/C797S protein (in words) [3] | GI50 [1, 6] | further results
COc1cc(N2CCC(N3CCN(C)CC3)CC2)ccc1Nc1ncc(Cl)c(Nc2ccccc2P(C)(C)=O)n1 [Brigatinib, reference compound] | 747 nM | no degradation effect |  | GI50 ([1]; read-out: IC50 (nM), antiproliferative activity, 72h incubation, CTG luminescence): 355 nM
COc1cc(N2CCC(N3CCN(CCCC#Cc4cccc5c4CN(C4CCC(=O)NC4=O)C5=O)CC3)CC2)ccc1Nc1ncc(Cl)c(Nc2ccccc2P(C)(C)=O)n1 (stereo not drawn) [Comparative compound C126] | 1390 nM |  |  | 
C=C(F)C(=O)Nc1cc(Nc2ncc(Cl)c(Nc3ccccc3P(C)(C)=O)n2)c(OC)cc1N1CCC(N2CCN(C)CC2)CC1 [Comparative compound L527, reference compound] |  | no degradation effect | 458 nM | 
C=CC(=O)Nc1cc(Nc2nccc(-c3cn(C)c4ccccc34)n2)c(OC)cc1N(C)CCN(C)C [Osimertinib] |  |  |  | IC50 ([2]; NCI-H1975, 72 h): 10.7 nM
